Structures are written as SMILES. pIC50: −log10 of the molar value. Read-outs that look alike come from different tables or passages of the source.

The target in this test is ERK2 kinase (Homo sapiens (Human), UniProt P28482). Description: In vitro enzyme activity assay, ERK2 kinase (Z'-LYTE). Type of test: biochemical. The procedure: Half inhibitory activity of the compounds of the invention against ERK2 kinase (IC50 value) was determined in this Example.
• Enzyme: extracellular signal-regulated kinase ERK2 kinase (PV3595, Invitrogen) • Kit: Z′-LYTE® Protein Kinase Assay Kit-Ser/Thr 3 Peptide (PV3176, Invitrogen) • Kit components: The substrate Z′-LYTE™ Ser/Thr 3 Peptide (PV3200) • The phosphorylation substrate Z′-LYTE™ Ser/Thr 3 Phospho-peptide (PV3215) • 5× kinase buffer: 250 mM HEPES (pH 7.5), 50 mM MgCl2, • 5 mM EGTA, 0.05% BRIJ-35 (PV3189, Invitrogen) • ATP (PV3227, Invitrogen) • Development Reagent A (PV3295, Invitrogen) • Development Buffer (P3127, Invitrogen) • Stop Reagent (P3094, Invitrogen) • Microplate reader: The multil-mode microplate reader PerkinElmer EnVision® • Microplate: black shallow 384-well microplate (6008269, PerkinElmer) (2). Assay Protocol:
The substrate Z′-LYTE™ Ser/Thr 3 Peptide, the phosphorylation substrate Z′-LYTE™ Ser/Thr 3 Phospho-peptide, 1× kinase buffer (5× kinase buffer was diluted with ultra pure water by five times), ATP, Development Reagent A, Development Buffer, Stop Reagent were balanced to room temperature for use. The screening concentrations for detecting the effect of the compounds of the invention on the ERK kinase activity were seven 3-fold serial dilutions starting from 1 μM (from 0.2 μM for the positive drug control) using 4% DMSO as co-solvent. 5 μL enzyme system (50 mM HEPES pH 7.5, 1 mM EGTA, 10 mM MgCl2, 0.01% Brij-35, 4 uM substrate, 0.8 ng/μL enzyme), 2.5 μL Compound, 2.5 μL 400 μM ATP were added into 384 well microplate, followed by incubation at room temperature for 60 min in the dark. After the reaction was completed, 5 μl the developing agent (Development Reagent A) diluted with the developing buffer (Development Buffer) was added to all reaction wells, followed by incubation at the room temperature for 60 min in the dark. 5 μL the terminating agent was added to each well to terminate the reaction. The fluorescence was determined using the multil-mode microplate reader PerkinElmer EnVision® (excitation wavelength 400 nm, emission wavelength 460 nm and 528 nm).
The inhibition rate of each well was calculated from 100% phosphorylation substrate well and 0% phosphorylation substrate well using the data analysis method below: phosphorylation %=1−{(emission rate×F100%−C100%)/[C0%−C100%+emission rate×(F100%−F0%)]}×100 inhibition %=100×(1−phosphorylation % of the test compound well/phosphorylation % of the 0% inhibition control) • wherein: • emission rate=fluorescence emission of the sample at 445 nm/fluorescence emission of the sample at 520 nm • F100%=the average fluorescence emission of the control well of 100% phosphorylation substrate at 520 nm • F0%=the average fluorescence emission of the control well of 0% phosphorylation substrate at 520 nm • C100%=the average fluorescence emission of the control well of 100% phosphorylation substrate at 445 nm • C0%=the average fluorescence emission of the control well of 0% phosphorylation substrate at 445 nm
Tests were carried out in duplicate. IC50 values were calculated from the inhibition of the kinase by the test compounds at a range of different concentrations.

The mark [1] stands for this setting: class symbols, read-out: ERK2 IC50.
Where [2] appears, read: read-out: IC50 against ERK2 kinase.

ERK2 kinase, sequence (P28482 whole entry): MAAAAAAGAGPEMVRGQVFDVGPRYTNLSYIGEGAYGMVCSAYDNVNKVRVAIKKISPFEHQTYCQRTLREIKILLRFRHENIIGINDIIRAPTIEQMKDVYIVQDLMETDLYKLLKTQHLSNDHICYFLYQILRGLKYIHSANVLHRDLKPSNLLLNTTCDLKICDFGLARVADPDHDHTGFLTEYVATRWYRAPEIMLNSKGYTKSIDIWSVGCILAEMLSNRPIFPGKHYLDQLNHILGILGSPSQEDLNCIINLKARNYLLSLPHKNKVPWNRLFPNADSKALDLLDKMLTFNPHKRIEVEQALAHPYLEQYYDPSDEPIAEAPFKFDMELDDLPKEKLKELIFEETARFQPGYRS

Turning to `O=C(Cc1cccnc1Cl)N1CCc2cc(-c3ccnc(NC4CC(O)C4)c3)cc(F)c21` (racemic) [Example P53, 2-(2-chloropyridin-3-yl)-1-(7-fluoro-5-(2-((3-hydroxylcyclobutyl)amino)pyridin-4-yl)indolin-1-yl)ethan-1-one], the pIC50 under setting [1] was 6.00 to 7.00.
With `CC(CO)Nc1nccc(-c2cc(F)c3c(c2)CCN3C(=O)Cc2cccnc2Cl)n1` (stereo not drawn) [Example P1, 2-(2-chloropyridin-3-yl)-1-(7-fluoro-5-(2-((1-hydroxylprop-2-yl)amino)pyrimidin-4-yl)indolin-1-yl)ethan-1-one], the pIC50 under setting [1] was 6.00 to 7.00.
On to `O=C(Cc1cccnc1Cl)N1CCc2cc(-c3ccnc(NCCO)n3)cc(F)c21` [Example P2, 2-(2-chloropyridin-3-yl)-1-(7-fluoro-5-(2-((2-hydroxylethyl)amino)pyrimidin-4-yl)indolin-1-yl)ethan-1-one], for which the negative-log IC50 (pIC50) under setting [1] is 7.00 to 8.00.
Same read-out and setting: then `O=C(Cc1cccnc1Cl)N1CCc2cc(-c3ccnc(NC4CCC(O)CC4)n3)cc(F)c21` (stereo not drawn) [Example P3, 2-(2-chloropyridin-3-yl)-1-(7-fluoro-5-(2-((4-hydroxylcyclohexyl)amino)pyrimidin-4-yl)indolin-1-yl)ethan-1-one], with 7.00 to 8.00; and `O=C(Cc1cccnc1Cl)N1CCc2cc(-c3ccnc(NC4CCC(O)C4)n3)cc(F)c21` (stereo not drawn) [Example P4, 2-(2-chloropyridin-3-yl)-1-(7-fluoro-5-(2-((3-hydroxylcyclopentyl)amino)pyrimidin-4-yl)indolin-1-yl)ethan-1-one], with 7.00 to 8.00.
As for `O=C(Cc1cccnc1Cl)N1CCc2cc(-c3ccnc(NC4CCOCC4)n3)cc(F)c21` [Example P5, 2-(2-chloropyridin-3-yl)-1-(7-fluoro-5-(2-((tetrahydro-2H-pyran-4-yl)amino)pyrimidin-4-yl)indolin-1-yl)ethan-1-one], the negative-log IC50 (pIC50) under setting [1] was at least 8.00.
Take `O=C(Cc1cccnc1Cl)N1CCc2cc(-c3ccnc(NC4CCOC4)n3)cc(F)c21` (stereo not drawn) [Example P6, 2-(2-chloropyridin-3-yl)-1-(7-fluoro-5-(2-((tetrahydrofuran-3-yl)amino)pyrimidin-4-yl)indolin-1-yl)ethan-1-one]: the negative logarithm of the IC50 (pIC50) under setting [1] was 7.00 to 8.00.
With `CC(CCO)Nc1nccc(-c2cc(F)c3c(c2)CCN3C(=O)Cc2cccnc2Cl)n1` (stereo not drawn) [Example P7, 2-(2-chloropyridin-3-yl)-1-(7-fluoro-5-(2-((4-hydroxylbutan-2-yl)amino)pyrimidin-4-yl)indolin-1-yl)ethan-1-one], the pIC50 under setting [1] is 7.00 to 8.00.
For `CC(CO)Nc1cc(-c2cc(F)c3c(c2)CCN3C(=O)Cc2cccnc2Cl)ccn1` (stereo not drawn) [Example P8, 2-(2-chloropyridin-3-yl)-1-(7-fluoro-5-(2-((1-hydroxylprop-2-yl)amino)pyridin-4-yl)indolin-1-yl)ethan-1-one], the pIC50 under setting [1] was 6.00 to 7.00.
For `Cn1nccc1Nc1nccc(-c2cc(F)c3c(c2)CCN3C(=O)Cc2cccnc2Cl)n1` [Example P10, 2-(2-chloropyridin-3-yl)-1-(7-fluoro-5-(2-((1-methyl-1H-pyrazol-5-yl)amino)pyrimidin-4-yl)indolin-1-yl)ethan-1-one], the negative logarithm of the IC50 (pIC50) reads like this: under setting [1], at least 8.00; under setting [2], 8.21.
Turning to `Cn1nccc1Nc1nccc(-c2cc(Cl)c3c(c2)CCN3C(=O)Cc2cccnc2Cl)n1` [Example P11, 1-(7-chloro-5-(2-((1-methyl-1H-pyrazol-5-yl)amino)pyrimidin-4-yl)indolin-1-yl)-2-(2-chloropyridin-3-yl)ethan-1-one], the pIC50 under setting [1] is 7.00 to 8.00.
Consider `Cn1nccc1Nc1nccc(-c2cc(F)c3c(c2)CCN3C(=O)Cc2ccc(F)cc2F)n1` [Example P12, 2-(2,4-difluorophenyl)-1-(7-fluoro-5-(2-((1-methyl-1H-pyrazol-5-yl)amino)pyrimidin-4-yl)indolin-1-yl)ethan-1-one], for which the pIC50 under setting [1] is 7.00 to 8.00.
For `Cc1cc(-c2ccnc(Nc3ccnn3C)n2)cc2c1N(C(=O)Cc1cccnc1Cl)CC2` [Example P13, 2-(2-chloropyridin-3-yl)-1-(7-methyl-5-(2-((1-methyl-1H-pyrazol-5-yl)amino)pyrimidin-4-yl)indolin-1-yl)ethan-1-one], under setting [1], the pIC50 is 6.00 to 7.00.
On to `Cn1nccc1Nc1cc(-c2cc(Cl)c3c(c2)CCN3C(=O)Cc2cccnc2Cl)ccn1` [Example P14, 1-(7-chloro-5-(2-((1-methyl-1H-pyrazol-5-yl)amino)pyridin-4-yl)indolin-1-yl)-2-(2-chloropyridin-3-yl)ethan-1-one], for which the pIC50 under setting [1] was 7.00 to 8.00.
Turning to `Cn1nccc1Nc1nccc(-c2cc(F)c3c(c2)CCN3C(=O)Cc2ccccc2F)n1` [Example P17, 1-(7-fluoro-5-(2-((1-methyl-1H-pyrazol-5-yl)amino)pyrimidin-4-yl)indolin-1-yl)-2-(2-fluorophenyl)ethan-1-one], under setting [1], the negative logarithm of the IC50 (pIC50) was 7.00 to 8.00.
With `Cn1nccc1Nc1nccc(-c2cc(F)c3c(c2)CCN3C(=O)Cc2ccccc2Cl)n1` [Example P18, 2-(2-chlorophenyl)-1-(7-fluoro-5-(2-((1-methyl-1H-pyrazol-5-yl)amino)pyrimidin-4-yl)indolin-1-yl)ethan-1-one], the pIC50 reads like this: under setting [1], at least 8.00; under setting [2], 8.52.
For `Cn1nccc1Nc1nccc(-c2cc(F)c3c(c2)CCN3C(=O)Cc2ccc(Cl)cc2)n1` [Example P19, 2-(4-chlorophenyl)-1-(7-fluoro-5-(2-((1-methyl-1H-pyrazol-5-yl)amino)pyrimidin-4-yl)indolin-1-yl)ethan-1-one], the pIC50 under setting [1] is 6.00 to 7.00.
Regarding `Cn1nccc1Nc1cc(-c2cc(F)c3c(c2)CCN3C(=O)Cc2ncccc2Cl)ccn1` [Example P28, 2-(3-chloropyridin-2-yl)-1-(7-fluoro-5-(2-((1-methyl-1H-pyrazol-5-yl)amino)pyridin-4-yl)indolin-1-yl)ethan-1-one], the pIC50 under setting [1] was 7.00 to 8.00.
For the compound `Cn1nccc1Nc1cc(-c2cc(F)c3c(c2)CCN3C(=O)Cc2cccc(Cl)n2)ccn1` [Example P29, 2-(6-chloropyridin-2-yl)-1-(7-fluoro-5-(2-((1-methyl-1H-pyrazol-5-yl)amino)pyridin-4-yl)indolin-1-yl)ethan-1-one], the pIC50 under setting [1] was 7.00 to 8.00.
The same measure, in the same setting: as for `Cn1nccc1Nc1nccc(-c2cc(F)c3c(c2)CCN3C(=O)Cc2ccccc2C#N)n1` [Example P30, 2-(2-(7-fluoro-5-(2-((1-methyl-1H-pyrazol-5-yl)amino)pyrimidin-4-yl)indolin-1-yl)-2-oxoethyl)benzonitrile], the figure is 7.00 to 8.00; as for `Cn1nccc1Nc1cc(-c2cc(F)c3c(c2)CCN3C(=O)Cc2ccccc2Cl)ccn1` [Example P31, 2-(2-chlorophenyl)-1-(7-fluoro-5-(2-((1-methyl-1H-pyrazol-5-yl)amino)pyridin-4-yl)indolin-1-yl)ethan-1-one], at least 8.00; as for `CC1Cc2cc(-c3ccnc(Nc4ccnn4C)n3)cc(F)c2N1C(=O)Cc1cccnc1Cl` (stereo not drawn) [Example P32, 2-(2-chloropyridin-3-yl)-1-(7-fluoro-2-methyl-5-(2-((1-methyl-1H-pyrazol-5-yl)amino)pyrimidin-4-yl)indolin-1-yl)ethan-1-one], at least 8.00.
Same read-out and setting: as for `Cn1nccc1Nc1nccc(-c2cc(F)c3c(c2)CCN3C(=O)Cc2c(F)ccnc2Cl)n1` [Example P33, 2-(2-chloro-4-fluoropyridin-3-yl)-1-(7-fluoro-5-(2-((1-methyl-1H-pyrazol-5-yl)amino)pyrimidin-4-yl)indolin-1-yl)ethan-1-one], the figure is 7.00 to 8.00; as for `Cn1nccc1Nc1nccc(-c2cc(F)c3c(c2)CCN3C(=O)Cc2cc(Cl)ccc2F)n1` [Example P34, 2-(5-chloro-2-fluorophenyl)-1-(7-fluoro-5-(2-((1-methyl-1H-pyrazol-5-yl)amino)pyrimidin-4-yl)indolin-1-yl)ethan-1-one], 7.00 to 8.00; as for `Cn1nc(CO)cc1Nc1cc(-c2cc(F)c3c(c2)CCN3C(=O)Cc2cccnc2Cl)ccn1` [Example P35, 2-(2-chloropyridin-3-yl)-1-(7-fluoro-5-(2-((3-(hydroxylmethyl)-1-methyl-1H-pyrazol-5-yl)amino)pyridin-4-yl)indolin-1-yl)ethan-1-one], 7.00 to 8.00.

For the origin of these results see patent US11465984B2, “Compound having ERK kinase inhibitory activity and use thereof” (SHANGHAI HAIHE PHARMACEUTICAL CO., LTD., priority 2017, dated 2022).
